Measured values: paper PMC5979539 (International Journal of Molecular Sciences, 2018)

T1: PDC-109 (Bos taurus, UniProt P02784)
T1 construct: PDC-109, purified from bull seminal plasma, was kindly donated by J.J. Calvete; tissue gift of J.J. Calvete; host or cells: bull seminal plasma
T1 sequence (P02784 26-134): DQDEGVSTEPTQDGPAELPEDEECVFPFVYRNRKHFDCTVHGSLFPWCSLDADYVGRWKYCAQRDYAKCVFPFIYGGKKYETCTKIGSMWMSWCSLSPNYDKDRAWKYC

B1: PDC-109 (BSP-A1/-A2), main protein of bovine seminal plasma (natural protein, UniProt P02784 26-134, looked up)
chain: T1 sequence (P02784 26-134)
modifications: mixture of the glycosylated (O-linked trisaccharide, Neu5Ac-Hex-HexNAc) and non-glycosylated forms
notes: Native preparation; two closely spaced bands on SDS-PAGE (glycosylated and non-glycosylated forms); The same preparation was both immobilised and flowed over the chip; also called BSP-A2; source: purified from bull seminal plasma (donated by J.J. Calvete)

How the values were obtained:
Con A = Con A (Canavalia ensiformis, UniProt P02866); settings: for ka1: SPR BIAcore 3000, glycoprobe immobilized on CM5 chip, HBS-P pH 7.4 + CaCl2 5 mM, MnCl2 1 mM; for ka1 / kd1 / ka2 / kd2: Con A 2.5-80 nM, bivalent model; for ka1 / kd1: first binding event; for KA1 / kd1 / ka2 / kd2: SPR; for KA1: affinity constant of first event, KA1 = ka1/kd1; for kd1 / ka2 / kd2: immobilized glycoprobe; for ka2 / kd2: second binding event
Protocol: Subsequently, glycoprobes displaying mannobioses only differing in their glycosidic linkage (Man-α1,2-Man, Man-α1,3-Man and Man-α1,6-Man) were immobilized on a sensor chip and their interaction with concanavalin A (Con A) was studied. Con A is a relatively complex lectin, organized as a β-barrel-like tetramer at pH > 7, each dimer subunit (D2 symmetry) with two CRDs situated on opposing faces of the protein. Sensorgrams of different Con A concentrations were recorded and kinetic constants determined by simultaneously fitting the experimental curves to a bivalent kinetic model (Figure 1). This model allows the first and second binding events to be separately described by two sets of rate constants (Table 2).
All SPR experiments were performed in a BIAcore 3000 instrument (GE Healthcare, Uppsala, Sweden) using carboxymethyl-functionalized CM5 or C1 sensor chips and HBS-P (0.01 M HEPES pH 7.4; 0.15 M NaCl; 0.005% v/v surfactant P20) as running buffer, supplemented when necessary with CaCl2 (5 mM) and MnCl2 (1 mM) or other competitive reagents/adjuvants such as bovine serum albumin (BSA), carboxymethyldextran (CMD) or polivinylpirrolidone (PVP). SPR sensorgram analysis and curve fitting were done with the BIAevaluation 4.1.1 sofware package (GE Healthcare, Uppsala, Sweden). In all experiments, specific binding responses were obtained by subtracting from each channel the reference channel response. Moreover, in most cases a double referencing was applied (i.e., reference Fc1 channel plus an internal reference standard, namely buffer injection subtraction).
For all immobilizations, the carboxyl functionalities of the CM5 (or C1) sensor chip surfaces were activated by injecting a mixture of 0.05 M NHS and 0.2 M EDC (1:1 v/v; 50 µL) at 5 µL/min. Then, glycopeptide solutions were passed at 1–2 mg/mL in 10 mM NaOAc for approximately 12 min over the activated surface. For immobilization, pH 4 or pH 6 conditions were used, as required. In the specific case of PDC-109, protein solution was passed at 0.05 µg/µL in 10 mM NaOAc pH 4 over the activated surface. Afterwards, unreacted groups on all chip surfaces were blocked with ethanolamine-HCl (1 M; pH 8.5; 60 µL) or H2O (60 µL). The difference, in resonance units (RU), between readings after surface activation and final response was converted into amount of immobilized glycopeptide (0.981 RU~1 pg/mm^2 for glycopeptides, 1 RU = 1 pg/mm^2 for proteins; see legend Table 6).
All kinetic measurements were carried out by running a manually programmed sequence of binding experiments using several protein range concentrations and two flow rates. Regeneration of the sensor surface was accomplished in a specific-manner by injecting the complementary carbohydrate (10 mM lac, 100–500 mM αMe-Man, 0.5 M αMe-Fuc or L-Fuc, 0.5 M GlcNAc, 0.5 M Glc, and 10 mM Sia). Alternatively, other procedures such as glycoprotein solutions (e.g., fetuin at 2–5 g/L), low pH-buffers (e.g., 10 mM glycine pH 1.5–2.5), high salt (e.g., 1 M NaCl), high pH or specific chemicals were also used to break the interaction.
For the evaluation of the sensor chips, binding experiments and kinetic studies were carried out with the various glycoprobes and specific well-characterized lectins (ECA, Con A, LTA, UEA-I, MAA, and SNA). Several concentrations of each lectin were prepared by serial 2/3-fold dilutions of the most concentrated sample in running buffer supplemented with CaCl2 (5 mM) and MnCl2 (1 mM). Thus, concentrations varied from 66 nM to 2.5 µM for ECA; from 2.5 to 80 nM for Con A; from 31.25 nM to 1 µM for LTA and UEA-I; from 250 nM to 1.9 µM for MAA and from 74 to 563 nM for SNA. Analyses were performed at 20 µL/min and kinetic studies at 10 and 40 μL/min. After lectin injection, the sample solution was replaced by running buffer and the dissociation phase was monitored for 3–6 min.

PDC-109 = biological target: T1, PDC-109; test: SPR binding profile and kinetics of PDC-109 on immobilized neo-glycoprobes; set-up: species or system bovine; settings: for derived association (KA) constant / kd / ka: immobilized glycoprobe, PDC-109 6.25 to 100 μM, HBS-P pH 7.4, 25 °C, 1:1 Langmuir model; for kd / ka: 3 to 6 repeat experiments; for ka: 30 μL/min, CV exceeding 50% in particular cases; for binding to PDC-109 in words: immobilized probe, PDC-109 flown over
Text: While the lipid selectivity and kinetics of PDC-109 has been characterized in considerable detail, its interaction with carbohydrate epitopes remains largely uncharted, despite its potential role in sperm reservoir formation in the female genital tract. We have therefore performed SPR experiments with PDC-109 and the most relevant mammalian glycotopes, particularly those containing Fuc epitopes. Once SPR sensor chips were functionalized with the different synthetic glycoprobes and evaluated with specific lectins (Section 2.1.2) they were used to characterize both qualitatively and quantitatively the interaction of PDC-109. For kinetic analysis, several concentrations in the 6.25 to 100 μM range were analyzed and a 1:1 Langmuir binding model was chosen for sensorgram fitting.
Data dispersion was attributable to the unusual sensorgrams observed, reflecting a complex binding event, particularly in the association phase of PDC-109. […] In a conventional, straightforward binding event, the response—i.e., the signal rise over time, reflecting protein binding to the sensor surface—reaches a constant value once equilibrium is established, and remains so until the protein solution passed over the sensor chip is replaced with buffer, giving way to the spontaneous dissociation process and subsequent surface regeneration.
Binding experiments were performed at 25 °C and 30 μL/min flow rate. […] Sensor surface was regenerated with a 60 μL-injection of specific carbohydrate (10 mM lac, 500 mM αMe-Man, 0.5 M αMe-Fuc, and 10 mM Sia) followed by a 60 μL-injection of NaCl 1 M.

MAA = test: SPR binding and kinetics of MAA on immobilized sialic acid glycoprobes; set-up: species or system Maackia amurensis
SNA = SNA (Sambucus nigra, UniProt Q41358)
[1] = biological target: the molecule itself; test: SPR; PDC-109 immobilised on a CM5 chip (1645 RU, 10 mM NaOAc pH 4); 50 µM PDC-109 passed over at 20 µL/min; regeneration with 1 M NaCl; two replicates

Sequence of SNA (Q41358 309-570 limits assumed): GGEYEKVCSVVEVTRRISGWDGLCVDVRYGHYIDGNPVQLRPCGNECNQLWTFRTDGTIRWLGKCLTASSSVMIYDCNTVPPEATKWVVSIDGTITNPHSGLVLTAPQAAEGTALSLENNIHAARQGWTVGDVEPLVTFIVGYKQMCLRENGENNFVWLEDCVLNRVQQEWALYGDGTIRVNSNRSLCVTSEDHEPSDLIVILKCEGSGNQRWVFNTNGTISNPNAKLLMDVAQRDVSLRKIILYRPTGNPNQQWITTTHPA
Sequence of SNA (Q41358 29-290 partner limits assumed): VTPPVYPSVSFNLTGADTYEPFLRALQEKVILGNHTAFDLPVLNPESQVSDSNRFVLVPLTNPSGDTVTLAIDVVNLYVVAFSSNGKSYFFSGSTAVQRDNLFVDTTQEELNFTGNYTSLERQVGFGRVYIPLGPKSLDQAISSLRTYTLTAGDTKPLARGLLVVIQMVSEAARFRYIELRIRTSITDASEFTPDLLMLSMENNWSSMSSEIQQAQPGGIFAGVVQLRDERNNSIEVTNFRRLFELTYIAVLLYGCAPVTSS

| Molecule | derived association (KA) constant (PDC-109) [M⁻¹] | kd (PDC-109) [s⁻¹] | ka (PDC-109) [M⁻¹ s⁻¹] | also measured |
| --- | --- | --- | --- | --- |
| Man-α1,2-Man-Aoa(m)-GFKKG [neo-glycoprobe: Man-α1,2-Man oxime-ligated to the peptide module N[Me]-O-Aoa-GFKKG] | 78700 | 0.013 | 1020 | ka1 (Con A): 16800 M⁻¹ s⁻¹; KA1 (Con A): 126000 M⁻¹; kd1 (Con A): 0.133 s⁻¹; ka2 (Con A): 2.88 × 10^−2 RU^−1 s^−1; kd2 (Con A): 0.0706 s⁻¹ |
| Man-α1,3-Man-Aoa(m)-GFKKG [neo-glycoprobe: Man-α1,3-Man oxime-ligated to the peptide module N[Me]-O-Aoa-GFKKG] | 87700 | 0.0044 | 386 | ka1 (Con A): 22800 M⁻¹ s⁻¹; KA1 (Con A): 345000 M⁻¹; kd1 (Con A): 0.0661 s⁻¹; ka2 (Con A): 3.78 × 10^−3 RU^−1 s^−1; kd2 (Con A): 0.0629 s⁻¹ |
| N[Me]-O-Aoa-GFKKG-amide [peptide module for oxime ligation] | – | – | – | binding to PDC-109 in words (PDC-109): undesirable, non-specific binding |
| Fuc-α1,6-GlcNAc-Aoa(m)-GFKKG [neo-glycoprobe: Fuc-α1,6-GlcNAc oxime-ligated to the peptide module N[Me]-O-Aoa-GFKKG] | 73100 | 0.00345 | 645 | – |
| Gal-β1,4-GlcNAc-Aoa(m)-GFKKG [neo-glycoprobe: Gal-β1,4-GlcNAc oxime-ligated to the peptide module N[Me]-O-Aoa-GFKKG] | 10000 | 0.0086 | 86.2 | – |
| Man-α1,6-Man-Aoa(m)-GFKKG [neo-glycoprobe: Man-α1,6-Man oxime-ligated to the peptide module N[Me]-O-Aoa-GFKKG] | 23800 | 0.0173 | 410 | ka1 (Con A): 8910 M⁻¹ s⁻¹; KA1 (Con A): 308000 M⁻¹; kd1 (Con A): 0.0289 s⁻¹; ka2 (Con A): 7.15 × 10^−4 RU^−1 s^−1; kd2 (Con A): 0.019 s⁻¹ |
| Fuc-α1,3-GlcNAc-Aoa(m)-GFKKG [neo-glycoprobe: Fuc-α1,3-GlcNAc oxime-ligated to the peptide module N[Me]-O-Aoa-GFKKG] | 237000 | 0.00165 | 763 | – |
| Neu5Ac-α2,3-Gal-β1,4-GlcNAc-N[Me]-O-Aoa-GFKKG-amide [Neu5Ac-α2,3-Gal-β1,4-GlcNAc-Aoa(m)-GFKKG, neo-glycoprobe: Neu5Ac-α2,3-Gal-β1,4-GlcNAc oxime-ligated to the peptide module N[Me]-O-Aoa-GFKKG] | 12400 | 0.00477 | 99.9 | carbohydrate specificity of MAA in words (MAA; SPR binding responses on sialic acid glycoprobe chip): recognized only; ka (MAA; SPR, immobilized glycoprobe, MAA 250 nM to 1.9 μM, HBS-P pH 7.4 + CaCl2 5 mM, MnCl2 1 mM, 1:1 Langmuir model): 5.55 × 10^3 M^−^1 s^−^1; KA (MAA; SPR, immobilized glycoprobe, MAA 250 nM to 1.9 μM, 1:1 Langmuir model): 9.12 × 10^5 M^−^1 |
| Neu5Ac-α2,3/6-Gal-β1,4-Glc-N[Me]-O-Aoa-GFKKG-amide [Neu5Ac-α2,3/6-Gal-β1,4-Glc-Aoa(m)-GFKKG, neo-glycoprobe: Neu5Ac-α2,3/6-Gal-β1,4-Glc oxime-ligated to the peptide module N[Me]-O-Aoa-GFKKG] | 27700 | 0.0081 | 2120 | – |
| Neu5Ac-α2,6-Gal-β1,4-GlcNAc-N[Me]-O-Aoa-GFKKG-amide [Neu5Ac-α2,6-Gal-β1,4-GlcNAc-Aoa(m)-GFKKG, neo-glycoprobe: Neu5Ac-α2,6-Gal-β1,4-GlcNAc oxime-ligated to the peptide module N[Me]-O-Aoa-GFKKG] | 166000 | 0.00253 | 1880 | KA (SNA): 6.27 × 10^6 M^−^1; carbohydrate specificity of SNA in words (SNA): marked preference; ka (SNA; pH 7.4): 1.02 × 10^4 M^−^1 s^−^1; binding to PDC-109 in words (PDC-109): favored interaction |
| Gal-β1,6-GlcNAc-Aoa(m)-GFKKG [neo-glycoprobe: Gal-β1,6-GlcNAc oxime-ligated to the peptide module N[Me]-O-Aoa-GFKKG] | 22700 | 0.0208 | 472 | – |
| Fuc-α1,4-GlcNAc-Aoa(m)-GFKKG [neo-glycoprobe: Fuc-α1,4-GlcNAc oxime-ligated to the peptide module N[Me]-O-Aoa-GFKKG] | – | 8.83e-05 | 2910 | binding to PDC-109 in words (PDC-109): highest binding affinity |
| Gal-β1,3-GlcNAc-Aoa(m)-GFKKG [neo-glycoprobe: Gal-β1,3-GlcNAc oxime-ligated to the peptide module N[Me]-O-Aoa-GFKKG] | 17000 | 0.00756 | 128 | – |
| B1 | – | – | – | binding result [1]: binds |
